Read-outs that look alike come from different tables or passages of the source. Marks after values point to notes of the source that are not given here.
Experiments:
[1] = test system: Ralstonia; conditions: solution added to Ralstonia culture liquid in physiological brine; cited from earlier work
[2] = test system: Ralstonia solanacearum; format: in vivo; conditions: for Bacterial wilt severity: foliar application, tomato plants, scale 0=healthy to 4=dead plant
[3] = test system: Ralstonia; conditions: tomato plants transferred into hydroponic solutions inoculated with Ralstonia and previously treated with 3-IBA; more than 60% wilt in its absence; cited from earlier work

| Structure (SMILES) | Ralstonia growth (turbidity of culture liquid) [1] | Bacterial wilt severity ([2]; higher concentration (2.0 lbs active ingredient per 100 gallons), rated 9/26/2000, six replications) | Bacterial wilt severity ([2]; higher concentration (2.0 lbs active ingredient per 100 gallons), rated 9/27/2000) | Bacterial wilt severity ([2]; higher concentration (2.0 lbs active ingredient per 100 gallons), rated 9/30/2000) | Bacterial wilt severity ([2]; higher concentration (2.0 lbs active ingredient per 100 gallons), rated 10/04/2000) | Bacterial wilt severity ([2]; higher concentration (2.0 lbs active ingredient per 100 gallons), rated 10/26/2000) | Bacterial wilt severity ([2]; low concentration (0.25 lbs active ingredient per 100 gallons), rated 9/26/2000, six replications) | Bacterial wilt severity ([2]; low concentration (0.25 lbs active ingredient per 100 gallons), rated 9/27/2000) | Bacterial wilt severity ([2]; low concentration (0.25 lbs active ingredient per 100 gallons), rated 9/30/2000) | Bacterial wilt severity ([2]; low concentration (0.25 lbs active ingredient per 100 gallons), rated 10/04/2000) | Bacterial wilt severity ([2]; low concentration (0.25 lbs active ingredient per 100 gallons), rated 10/26/2000) | Plants revived and recovering at the end of the trial ([2]; higher concentration, foliar treatment prior to inoculation, of 6 tomato plants) | State of the 6 treated plants by the end of the trial ([2]; low concentration, foliar treatment prior to inoculation, 6 tomato plants) | Plants slightly wilted [3] |
| --- | --- | --- | --- | --- | --- | --- | --- | --- | --- | --- | --- | --- | --- | --- |
| C[C@@H](CC(=O)O)c1c[nH]c2ccccc12 [(S)-3-(3-indolyl) butanoic acid] | suppression of Ralstonia growth |  |  |  |  |  |  |  |  |  |  |  |  |  |
| CC(CC(=O)O)c1c[nH]c2ccccc12 (centres unmarked) [3-IBA, 3-(3-indolyl) butanoic acid] |  | 2.3 | 3.0 | 2.8 | 3.3 | 1.5*** | 2.5 | 3.0 | 4.0 | 3.8 | 4.0** | 3 plants | all dead | less than 10% |

Reference: patent US6399646B1 (priority 2001, dated 2002)
